Source: patent US11738120B1, “Synthesis of taurolidine, purity profiles and polymorphs” (CorMedix Inc., priority 2022, dated 2023)
Read-outs that look alike come from different tables or passages of the source.

How the values were obtained:
[1] = cited from earlier work; for ΔpH @ −20° C.: pH shift during freezing
[2] = Long term stability tests of taurolidine solution with citric acid and sodium citrate; type: physicochemical; settings: citric acid and sodium citrate in combination; compared with taurolidine solution prepared with polyvinylpyrrolidone (PVP)
Description: The composition employed in the practice of the present invention preferably also contains a pharmacologically acceptable carrier solution, such as, water for injection.

[3] = cited from earlier work
[4] = Solubility of taurolidine polymorphs in aqueous citric acid; type: physicochemical; settings: in 26.1 mg/mL aqueous citric acid, at T=25° C.
Description: Taurolidine Polymorphs A and B synthesized according to the Present Synthesis may both be soluble in 26.1 mg/mL aqueous citric acid, at T=25° C.

| Compound | pH @ 25° C. [1] | ΔpH @ −20° C. [1] | further results |
| --- | --- | --- | --- |
| CC(=O)O [Acetic acid] | 5.6 | +0.5 | – |
| NC(CO)(CO)CO [Tromethamine] | 7.2 | +2.1 | – |
| O=S1(=O)CCN(CN2CCS(=O)(=O)NC2)CN1 [taurolidine] | – | – | stability and solubility of taurolidine in solution [2]: increases the stability and solubility |
| N[C@@H](CCC(=O)O)C(=O)O [Glutamic acid] | – | – | pKa ([3]; second pKa value): 4.1; pKa ([3]; third pKa value printed in the cell): 9.5 |
| N[C@@H](Cc1c[nH]cn1)C(=O)O [Histidine] | 5.4 | +0.8 | – |
| O=S1(=O)CCN(CN2CCS(=O)(=O)NC2)CN1 [Polymorph A, taurolidine] | – | – | solubility [4]: soluble |
| O=C(O)CC(O)C(=O)O (stereo not drawn) [Malic acid] | 5.0 | −0.3 | pKa ([3]; second pKa value): 3.4, 5.1 |
| O=C(O)CC(O)(CC(=O)O)C(=O)O [Citric acid] | 6.2 | −0.2 | – |
